This is an account of results in patent US20260021122A1, “CANNABINOIDS AND USES THEREOF IN TREATMENT OF A DISEASE” (TECHNION RESEARCH & DEVELOPMENT FOUNDATION LIMITED, priority 2022, published 2026).

SMILES strings stand for the structures.

This test has as its system B16F10 tumors. Briefly: Myeloid cell and CD3+ T-cell frequencies in excised B16F10 tumors (spectral flow cytometry). It is filed as in vivo, mice. The conditions noted are these: CBG 2.5 mg/kg or 3704 3.75 mg/kg i.p., tumors day 14. The method, then:
All procedures involving animals were conducted in accordance with the standards approved by the Technion Animal Care and Use Ethics Committee and the studies adhered to the Technion Code for Experimentation on Animals. To induce tumors, B16F10 cells grown to a confluency of ˜75% were resuspended to a concentration of 1×10^6 cells in 200 ul sterile PBS and transplanted subcutaneously into the right flank of 8-10-week-old female WT C57B6/L mice (Envigo, 16.8±0.78 g). After either 24 hours or 3 days, mice were randomly divided into groups and treated as indicated with either a vehicle of Cannabis extract solvent (18:1:1 ratio of DDW+0.9% NaCl, Sigma, Cat #S7653; Cremophor® EL, Cat #238470; Ethanol, Sigma, #Cat 111727), CAN (100 mg/kg), synthetic CBG (2.5 mg/kg) or 3704 (3.75 mg/kg) for 5 days, then 2 days off and again for 4 days. Tumor volume was measured from day 10 to 14 (endpoint) using a vernier caliper and calculated according to the formula […] and all tumors were weighed at the endpoint of the experiments with an analytical scale.
To prepare single-cell suspensions from the tumors, on day 14 the tumors were excised from the mice and placed in Hanks' Balanced Salt solution (HBSS, Sigma; Cat #H6648) containing 20 mg/ml DNase I (Sigma, Cat #D5025), 1 mg/ml collagenase D from Clostridium histolyticum (Sigma-Aldrich, Cat #C5138) and 0.1 mg/ml hyaluronidase (Sigma-Aldrich, Cat #6254). Tumors were mechanically digested using a scalpel and the gentleMACS™M Dissociator (Miltenyi Biotec). The resulting solution was filtered through a 100 μm filter (Alex Red Ltd. Cat #SO SCS1002) and centrifuged for 10 minutes at 400×g. The supernatant was further used for cytokine and chemokine concentration measurements. For the characterization of myeloid cell frequencies in tumors, the cell pellet was further processed as follows: red blood cells were lysed using the red blood lysis buffer (Biological industries, Cat #01-888-1B), which was neutralized by washing with PBS+2% FBS and centrifuging 10 minutes at 400×g. After centrifugation, cells were resuspended in 40% percoll gradient solution (prepared from 100% percoll, Cytiva, #17089101) and then 80% percoll was added on top of the 40% solution without mixing. The cell suspension was centrifuged at room temperature for 30 minutes without acceleration and break at 500×g. Cells were isolated from the interphase between the 40% and 80% percoll solutions and washed with PBS +2% FBS. Finally, cells were stained with extracellular markers for CD3+ T-cells and myeloid cells, and subpopulation frequency was measured by spectral flow cytometry using Cytek® Aurora (Cytek Biosciences). […]

Consider `CCCCCc1cc(O)c(C/C=C(\C)CCC=C(C)C)c(O)c1` [CBG, cannabigerol], for which the “CD3 T-cells frequencies in tumors relative to vehicle control” value was “trend of increase in T-cells frequencies”; the “frequencies of MO-MDSC and PMN-MDSC subpopulations in tumors” value is on record as “did not affect”; the “frequency of M2 macrophages in tumors relative to vehicle control” value is “trend of a decreased frequency in M2 macrophages”. The “ratio between M1 and M2 macrophages (M2/M1) relative to vehicle control” value (calculated for each mouse) is given as “trend of decreased ratio”.
